In data set [1] the test system is tubulin acetylation (HDAC6) in RPMI8226 cells. The data set is described as follows: Western blot analysis of tubulin acetylation in cells. It counts as cell-based. The conditions noted are these: 24 hours, Western blot (FIG. 1). As to the method: Specifically, RPMI8226 cells were seeded into a six-well plate at a density of 1.0×10^6 cells/well, and then treated with varying concentrations of each of compounds 636 and 642. After 24 hours, protein was extracted from the cells using RIPA buffer and quantified by the Bradford method. 25 μg of the protein was dissolved to sample buffer and electrophoresed on 4-12% gradient gel, and the gel was transferred to a nitrocellulose membrane for 50 minutes. The membrane was blocked in 5% skim milk solution for 1 hour. Anti-acetyl H3 antibody (1:2,000), anti-acetyl H4 antibody (1:5,000), anti-acetyl tubulin antibody (1:5,000) and anti-β-actin antibody (1:10,000) were added to 5% skim milk, and the membrane was immersed in the skim milk and allowed to react at 4° C. for 16 hours, after which it was washed three times with 1×TBS-T for 10 minutes each washing. IgG-HRP antibody (1:5,000) was added to 5% skim milk, and the membrane was immersed in the skim milk and allowed to react at room temperature for 40 minutes, after which it was washed three times with 1×TBS-T for 10 minutes each washing. Detection was performed by LAS 3000 using ECL solution.

The subject of data set [2] is proliferation of effector T cells (Teff) co-cultured with Treg. The data set is described as follows: Regulatory T cell suppression function, Treg/Teff co-culture. It counts as cell-based, C57BL/6 mouse. The conditions noted are these: Teff:Treg 2:1 co-culture, 3 days; vehicle group 27% suppression. As to the method: The effect of compound 636 on the proliferation of effector T cells in the co-culture condition of the regulatory T cells (Treg) and effector T cells (Teff) isolated from the spleen of C57BL/6 mouse was evaluated.
Specifically, 6-week-old C57BL/6 mouse were purchased, and spleens were isolated therefrom, and separated into single cells by treatment with collagenase D. Teff (CD4^+CD25^−) and Treg (CD4^+CD25^high) were isolated from the mouse spleen cells using a CD4^+CD25^high regulatory T cell isolation kit (Miltenyi Biotec). The Teff were stained with 5 μM Cell Proliferation Dye eFluor® 670 (eBioscience) at 37° C. under a light-shielded condition for 10 minutes, and incubated in cold complete media on ice for 5 minutes to stop the staining reaction, and then washed three times with complete media. The eFluor-stained effector T cells and the Treg were co-cultured on a U-bottom plate at a ratio of 2:1, and activated by adding a CD3εCD28 mAb-conjugated magnetic bead (T cell Activation/Expansion kit, Miltenyi Biotec) thereto. The activated cells were treated with compound 636, and after 3 days, the proliferation of the Teff was evaluated by analyzing the dilution pattern of eFluor® 670 with FACS Canto II (BD bioscience).

The test system of data set [3] is CTLA4 expression in iTreg (CD4+CD25+Foxp3+) cells. The data set is described as follows: CTLA4 assay in induced regulatory T cells. The conditions noted are these: 6 days incubation. It counts as cell-based, C57BL/6 mouse. The source says:
In order to evaluate the effect of the compounds of the present invention on the expression of CTLA4, FOXP3+ induced regulatory T cells were induced from effector T cells (CD4+CD25−) isolated from the spleen of C57BL/6 mouse. Specifically, 6-week-old C57BL/6 mouse were purchased, and spleens were isolated therefrom, and separated into single cells by treatment with collagenase D. Effector T cells (CD4+CD25−, Teff) were separated from the mouse spleen cells using a CD4+CD25 regulatory T cell isolation kit (Miltenyi Biotec). Teff were plated on a 48-well plate at a density of 5×10^5 cells/well, and activated by adding a […] mAb-conjugated magnetic bead (T cell Activation/Expansion kit, Miltenyi Biotec) thereto. The activated cells were treated with TGF-β2 and each compound, and after 6 days, the cells were subjected to cell surface staining with CD4-PECy7 and CD25-APC (eBioscience) and to intracellular staining with FOXP3-Alexafluor488 and CTLA4-PE (eBioscience). Then, a change in the expression of CTLA4 in the induced regulatory T cells (iTreg) was analyzed by FACS Canto II (BD bioscience).

A further data set concerns the target T1, HDAC6 human recombinant (Homo sapiens, UniProt Q9UBN7).
T1 construct: purchased Calbiochem 382180
T1 sequence (Q9UBN7 1-1215): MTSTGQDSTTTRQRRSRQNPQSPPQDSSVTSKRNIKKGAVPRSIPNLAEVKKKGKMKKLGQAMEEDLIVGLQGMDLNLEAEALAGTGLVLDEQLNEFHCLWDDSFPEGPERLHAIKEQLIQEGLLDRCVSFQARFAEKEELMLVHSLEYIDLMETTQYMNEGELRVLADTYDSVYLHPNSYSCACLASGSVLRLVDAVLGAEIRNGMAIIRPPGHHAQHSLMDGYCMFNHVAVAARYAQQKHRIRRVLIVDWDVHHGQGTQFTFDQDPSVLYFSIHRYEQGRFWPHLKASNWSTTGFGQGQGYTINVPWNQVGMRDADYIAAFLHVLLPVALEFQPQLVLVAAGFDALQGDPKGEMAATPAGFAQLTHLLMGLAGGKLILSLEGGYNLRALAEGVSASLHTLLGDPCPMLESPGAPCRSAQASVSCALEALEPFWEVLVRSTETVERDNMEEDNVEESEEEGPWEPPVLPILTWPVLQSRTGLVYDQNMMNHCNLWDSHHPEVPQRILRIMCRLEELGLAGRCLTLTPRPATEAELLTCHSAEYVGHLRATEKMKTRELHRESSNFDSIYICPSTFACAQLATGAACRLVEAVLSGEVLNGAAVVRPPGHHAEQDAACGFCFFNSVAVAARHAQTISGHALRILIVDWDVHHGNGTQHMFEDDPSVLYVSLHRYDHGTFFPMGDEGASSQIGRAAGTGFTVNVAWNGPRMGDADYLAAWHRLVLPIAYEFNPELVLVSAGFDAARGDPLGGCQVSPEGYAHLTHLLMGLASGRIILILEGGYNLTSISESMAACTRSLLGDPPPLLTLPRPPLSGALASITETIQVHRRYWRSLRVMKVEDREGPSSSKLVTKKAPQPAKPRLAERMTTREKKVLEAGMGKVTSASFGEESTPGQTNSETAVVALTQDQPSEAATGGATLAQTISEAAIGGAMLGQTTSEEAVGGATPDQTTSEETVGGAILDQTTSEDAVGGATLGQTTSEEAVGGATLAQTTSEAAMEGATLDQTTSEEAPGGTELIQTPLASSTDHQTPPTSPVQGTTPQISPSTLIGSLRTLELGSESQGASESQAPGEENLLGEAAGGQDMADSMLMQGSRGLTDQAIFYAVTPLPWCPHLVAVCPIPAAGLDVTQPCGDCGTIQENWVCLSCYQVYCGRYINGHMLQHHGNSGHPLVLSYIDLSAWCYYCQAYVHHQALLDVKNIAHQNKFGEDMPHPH
The data set can be described thus: Inhibition of HDAC6 activity (fluorimetric assay). It counts as biochemical. The conditions noted are these: test concentrations 0.1, 1, 10, 100 and 1000 nM; 37° C., 60 minutes. In outline: (§1)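 HDAC1 tested with the kit assay mixture at 100, 1000 and 10000 nM compound; recombinant human HDAC6 at 0.1, 1, 10, 100 and 1000 nM. Reaction ran 60 min at 37° C, then developer was added for 30 min at 37° C and fluorescence quantified.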

The next data set has as its system effector T cells (Teff). The data set can be described thus: Viability (death) of Teff cells. The data set is classed as cell-based, C57BL/6 mouse. Conditions: treated for 24 hours.
In a further data set the target is T2, HDAC1 (Homo sapiens, UniProt Q13547).
T2 construct: purchased Enzolifesciences BML-AK511
The data set is described as follows: Inhibition of HDAC1 activity (HDAC1 fluorimetric drug discovery assay kit). The data set is classed as biochemical. The conditions noted are these: test concentrations 100, 1000 and 10000 nM; 37° C., 60 minutes. The method, boiled down: as §1

Results on three compounds are retold here after patent US9650379B2 (CHONG KUN DANG PHARMACEUTICAL CORP., priority 2013, dated 2017).

T2 sequence (Q13547 whole entry): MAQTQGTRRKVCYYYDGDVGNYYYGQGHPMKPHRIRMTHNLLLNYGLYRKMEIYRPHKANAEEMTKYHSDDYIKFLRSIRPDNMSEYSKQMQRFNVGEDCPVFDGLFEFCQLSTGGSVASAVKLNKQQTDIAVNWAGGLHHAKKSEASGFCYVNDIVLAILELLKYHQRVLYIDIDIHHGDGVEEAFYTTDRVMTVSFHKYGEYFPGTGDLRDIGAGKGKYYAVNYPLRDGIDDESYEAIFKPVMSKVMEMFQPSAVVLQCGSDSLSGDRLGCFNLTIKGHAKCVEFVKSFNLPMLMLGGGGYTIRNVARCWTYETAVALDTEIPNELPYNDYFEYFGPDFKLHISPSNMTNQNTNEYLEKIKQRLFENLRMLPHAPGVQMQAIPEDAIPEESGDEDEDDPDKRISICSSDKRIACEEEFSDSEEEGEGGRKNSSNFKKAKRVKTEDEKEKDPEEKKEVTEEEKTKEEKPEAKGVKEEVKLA

Regarding `CC(C)(F)CN1CCC(c2ccnc3c2ccn3Cc2ccc(C(=O)NO)cc2)CC1` [Compound 636, 4-((4-(1-(2-fluoro-2-methylpropyl)piperidin-4-yl)-1H-pyrrolo[2,3-b]pyridin-1-yl)methyl)-N-hydroxybenzamide], the “compound concentration at which tubulin acetylation (HDAC6) appeared” value in data set [1] was “about 300 nM”. Besides, the “suppression ratio of Teff relative to the vehicle group” value in data set [2] stood at 2 times. Besides, in data set [3] (concentrations of 100 and 500 nM), the “increase of the expression of CTLA4 in the iTreg (CD4+CD25+Foxp3+) population” value is reported as 1.5-2 times. Moreover, the IC50 was found to be 8 nM on HDAC6 human recombinant and 930 nM on HDAC1. Besides, in the data set on effector T cells (Teff), the “viability of the Teff versus non-drug-treated group” value is recorded as “did not differ”.
Consider `CC(C)(F)CN1CCN(c2ccnc3c2ccn3Cc2ccc(C(=O)NO)cc2)CC1` [Compound 642, 4-((4-(4-(2-fluoro-2-methylpropyl)piperazin-1-yl)-1H-pyrrolo[2,3-b]pyridin-1-yl)methyl)-N-hydroxybenzamide], for which the “compound concentration at which tubulin acetylation (HDAC6) appeared” value in data set [1] is “about 300 nM”. The “increase of the expression of CTLA4 in the iTreg cells” value in data set [3] (concentration not stated separately) was at least 2 times. The IC50 came to 9 nM on HDAC6 human recombinant and 4310 nM on HDAC1.
Regarding `O=C(NO)c1ccc(Cn2ccc3cc(N4CCC5(CC4)CN(Cc4ccccn4)C5)cnc32)cc1` [Compound 1126, N-hydroxy-4-((5-(2-(pyridin-2-ylmethyl)-2,7-diazaspiro[3.5]nonan-7-yl)-1H-pyrrolo[2,3-b]pyridin-1-yl)methyl)benzamide], the IC50 amounted to 1.24 nM on HDAC6 human recombinant and 640 nM against HDAC1.
